Reference: patent US7407775B2, “Method for identifying Listeria monocytogenes and culture medium” (Biomerieux S.A., priority 2000, dated 2008)

Experiments:
Assay type in all cases: cell-based
Details in all cases: 37° C., substrate 250 mg/l
Listeria ivanovii 018 = experiment: Experiment 2: octanoate esterase substrates with different Indoxyl-based chromogenic markers; design: key: —: the symbol “-” corresponds to the absence of color or intensity; 0 corresponds to no activity; 0.1 corresponds to a trace of color; 0.5 corresponds to very pale coloration; 1 corresponds to clear but low-intensity coloration; 1.5 corresponds to a degree of coloration intermediate between scores 1 and 2; 2 corresponds to clear coloration of moderate intensity; 2.5 corresponds to a degree of coloration intermediate between scores 2 and 3; 3 corresponds to intense coloration; 3.5 corresponds to a degree of coloration intermediate between scores 3 and 4; 4 corresponds to very intense coloration
Description: (§1) In Table 1 above, as in the following Tables, C represents the color of the colonies after incubation, I represents the intensity of the color, and the symbol “-” corresponds to the absence of color or intensity; finally, IT defines the incubation time. It should be noted that the intensity of the color is scored on an arbitrary scale but one which is consistent for all the biological specimens and media tested. This scale is valid for this experiment as well as all those that follow. It can be defined in the following way: • 0 corresponds to no activity, • 0.1 corresponds to a trace of color, • 0.5 corresponds to very pale coloration, • 1 corresponds to clear but low-intensity coloration, • 1.5 corresponds to a degree of coloration intermediate between scores 1 and 2, • 2 corresponds to clear coloration of moderate intensity, • 2.5 corresponds to a degree of coloration intermediate between scores 2 and 3, • 3 corresponds to intense coloration, • 3.5 corresponds to a degree of coloration intermediate between scores 3 and 4, • 4 corresponds to very intense coloration.
(§2) A stock solution of each substrate at a concentration of 40 g/l was made up in a mixture of 40% Dimethylsulfoxide and 60% Tween 20. An appropriate volume was added to four Columbia-type media while cooling to give a final substrate concentration of 250 mg/l. These dishes were divided into three areas and then each area was inoculated with a suspension (density=0.5 McFarland) of microorganisms taken from either the Applicant's own collection or the ATCC. The dishes were incubated for 48 hours at 37° C. The colonies which grew were examined by eye after 24 and 48 hours of incubation. Both the color and the intensity of the color of the colonies were recorded.

Listeria innocua 166 = experiment: as above; design: key: —: the symbol “-” corresponds to the absence of color or intensity; 0 corresponds to no activity; 0.1 corresponds to a trace of color; 0.5 corresponds to very pale coloration; 1 corresponds to clear but low-intensity coloration; 1.5 corresponds to a degree of coloration intermediate between scores 1 and 2; 2 corresponds to clear coloration of moderate intensity; 2.5 corresponds to a degree of coloration intermediate between scores 2 and 3; 3 corresponds to intense coloration; 3.5 corresponds to a degree of coloration intermediate between scores 3 and 4; 4 corresponds to very intense coloration
Description: as §1, §2

Listeria ivanovii 025 = experiment: as above; design: key: —: the symbol “-” corresponds to the absence of color or intensity; 0 corresponds to no activity; 0.1 corresponds to a trace of color; 0.5 corresponds to very pale coloration; 1 corresponds to clear but low-intensity coloration; 1.5 corresponds to a degree of coloration intermediate between scores 1 and 2; 2 corresponds to clear coloration of moderate intensity; 2.5 corresponds to a degree of coloration intermediate between scores 2 and 3; 3 corresponds to intense coloration; 3.5 corresponds to a degree of coloration intermediate between scores 3 and 4; 4 corresponds to very intense coloration
Description: as §1, §2

[1] = tested on: Listeria monocytogenes ATCC 19117; experiment: Experiment 1: esterase substrates, same chromogenic marker, fatty acids of different chain lengths; design: key to I (intensity of the color): —: the symbol “-” corresponds to the absence of color or intensity; 0 corresponds to no activity; 0.1 corresponds to a trace of color; 0.5 corresponds to very pale coloration; 1 corresponds to clear but low-intensity coloration; 1.5 corresponds to a degree of coloration intermediate between scores 1 and 2; 2 corresponds to clear coloration of moderate intensity; 2.5 corresponds to a degree of coloration intermediate between scores 2 and 3; 3 corresponds to intense coloration; 3.5 corresponds to a degree of coloration intermediate between scores 3 and 4; 4 corresponds to very intense coloration
Description: as §2, with “Polyoxyethylenesorbitan Monolaurate (Tween 20).” for “Tween 20.”, “three” for “four”
as §1

[2] = tested on: Listeria monocytogenes 092; experiment: as above; design: key to I (intensity of the color): —: the symbol “-” corresponds to the absence of color or intensity; 0 corresponds to no activity; 0.1 corresponds to a trace of color; 0.5 corresponds to very pale coloration; 1 corresponds to clear but low-intensity coloration; 1.5 corresponds to a degree of coloration intermediate between scores 1 and 2; 2 corresponds to clear coloration of moderate intensity; 2.5 corresponds to a degree of coloration intermediate between scores 2 and 3; 3 corresponds to intense coloration; 3.5 corresponds to a degree of coloration intermediate between scores 3 and 4; 4 corresponds to very intense coloration
Description: as §2, with “Polyoxyethylenesorbitan Monolaurate (Tween 20).” for “Tween 20.”, “three” for “four”
as §1

[3] = tested on: Listeria monocytogenes ATCC 19115; experiment: as above; design: key to I (intensity of the color): —: the symbol “-” corresponds to the absence of color or intensity; 0 corresponds to no activity; 0.1 corresponds to a trace of color; 0.5 corresponds to very pale coloration; 1 corresponds to clear but low-intensity coloration; 1.5 corresponds to a degree of coloration intermediate between scores 1 and 2; 2 corresponds to clear coloration of moderate intensity; 2.5 corresponds to a degree of coloration intermediate between scores 2 and 3; 3 corresponds to intense coloration; 3.5 corresponds to a degree of coloration intermediate between scores 3 and 4; 4 corresponds to very intense coloration
Description: as §2, with “Polyoxyethylenesorbitan Monolaurate (Tween 20).” for “Tween 20.”, “three” for “four”
as §1

| SMILES | C (color of the colonies) (Listeria innocua 166; IT 24 h) | C (color of the colonies) (Listeria innocua 166; IT 48 h) | C (color of the colonies) ([1]; IT 24 h) | C (color of the colonies) ([1]; IT 48 h) | C (color of the colonies) ([2]; IT 24 h) | C (color of the colonies) ([2]; IT 48 h) | C (color of the colonies) (Listeria ivanovii 018; IT 24 h) | I (intensity of the color) (Listeria ivanovii 018; IT 24 h) | C (color of the colonies) (Listeria ivanovii 018; IT 48 h) | I (intensity of the color) (Listeria ivanovii 018; IT 48 h) | I (intensity of the color) (Listeria innocua 166; IT 24 h) | I (intensity of the color) (Listeria innocua 166; IT 48 h) | C (color of the colonies) (Listeria ivanovii 025; IT 24 h) | I (intensity of the color) (Listeria ivanovii 025; IT 24 h) | C (color of the colonies) (Listeria ivanovii 025; IT 48 h) | I (intensity of the color) (Listeria ivanovii 025; IT 48 h) | I (intensity of the color) ([1]; IT 24 h) | I (intensity of the color) ([1]; IT 48 h) | I (intensity of the color) ([2]; IT 24 h) | I (intensity of the color) ([2]; IT 48 h) | also measured |
| --- | --- | --- | --- | --- | --- | --- | --- | --- | --- | --- | --- | --- | --- | --- | --- | --- | --- | --- | --- | --- | --- |
| CCCCCCCC(=O)Oc1c[nH]c2ccc(Br)c(Cl)c12 [X-C8, 5-Bromo-4-chloro-3-indolyl octanoate] | turquoise | turquoise |  |  |  |  | — | — | — | — | 0.3 | 0.5 | — | — | — | — |  |  |  |  |  |
| CCCCCCCCC(=O)Oc1c[nH]c2ccc(Br)cc12 [Blue-C9, 5-Bromo-3-indolyl nonanoate] |  |  | gray | gray | gray | gray |  |  |  |  |  |  |  |  |  |  | 1 | 1.5 | 1 | 2 | C (color of the colonies) ([3]; IT 24 h): gray; I (intensity of the color) ([3]; IT 24 h): 1; C (color of the colonies) ([3]; IT 48 h): gray; I (intensity of the color) ([3]; IT 48 h): 2 |
| CCCCCCCCCC(=O)Oc1c[nH]c2ccc(Br)cc12 [Blue-C10, 5-Bromo-3-indolyl decanoate] |  |  | gray | gray | gray | gray |  |  |  |  |  |  |  |  |  |  | 0.5 | 1 | 1 | 2 | C (color of the colonies) ([3]; IT 24 h): gray; I (intensity of the color) ([3]; IT 24 h): 0.5; C (color of the colonies) ([3]; IT 48 h): gray; I (intensity of the color) ([3]; IT 48 h): 1 |
| CCCCCCCC(=O)Oc1c[nH]c2cc(Cl)ccc12 [Pink-C8, 6-Chloro-3-indolyl octanoate] | — | pink |  |  |  |  | — | — | — | — | — | 0.3 | — | — | — | — |  |  |  |  |  |

Second part, led by results:

| C (color of the colonies) (Listeria innocua 166; IT 24 h) | C (color of the colonies) (Listeria innocua 166; IT 48 h) | C (color of the colonies) ([1]; IT 24 h) | C (color of the colonies) ([1]; IT 48 h) | C (color of the colonies) ([2]; IT 24 h) | C (color of the colonies) ([2]; IT 48 h) | SMILES | C (color of the colonies) (Listeria ivanovii 018; IT 24 h) | I (intensity of the color) (Listeria ivanovii 018; IT 24 h) | C (color of the colonies) (Listeria ivanovii 018; IT 48 h) | I (intensity of the color) (Listeria ivanovii 018; IT 48 h) | I (intensity of the color) (Listeria innocua 166; IT 24 h) | I (intensity of the color) (Listeria innocua 166; IT 48 h) | C (color of the colonies) (Listeria ivanovii 025; IT 24 h) | I (intensity of the color) (Listeria ivanovii 025; IT 24 h) | C (color of the colonies) (Listeria ivanovii 025; IT 48 h) | I (intensity of the color) (Listeria ivanovii 025; IT 48 h) | I (intensity of the color) ([1]; IT 24 h) | I (intensity of the color) ([1]; IT 48 h) | I (intensity of the color) ([2]; IT 24 h) | I (intensity of the color) ([2]; IT 48 h) | also measured |
| --- | --- | --- | --- | --- | --- | --- | --- | --- | --- | --- | --- | --- | --- | --- | --- | --- | --- | --- | --- | --- | --- |
| purple | purple |  |  |  |  | CCCCCCCC(=O)Oc1c[nH]c2cc(Cl)c(Br)cc12 [Magenta-C8, 5-Bromo-6-chloro-3-indolyl octanoate] | — | — | — | — | 2 | 3 | — | — | — | — |  |  |  |  |  |
| gray | gray | gray | gray | gray | gray | CCCCCCCC(=O)Oc1c[nH]c2ccc(Br)cc12 [Blue-C8, 5-Bromo-3-indolyl octanoate] | — | — | — | — | 0.3 | 1 | — | — | — | — | 1 | 2 | 1.5 | 2.5 | C (color of the colonies) ([3]; IT 24 h): gray; I (intensity of the color) ([3]; IT 24 h): 1; C (color of the colonies) ([3]; IT 48 h): gray; I (intensity of the color) ([3]; IT 48 h): 2 |
